Measured values as given in US20230135524A1, “ARYL HYDANTOIN HETEROCYCLES AND METHODS OF USE” (The United States of America,as represented by the …, priority 2020, published 2023).

Molecular target: T1, AR (Homo sapiens, UniProt P10275)
T1 construct: host or cells: HEK 293T
T1 sequence (P10275 1-920): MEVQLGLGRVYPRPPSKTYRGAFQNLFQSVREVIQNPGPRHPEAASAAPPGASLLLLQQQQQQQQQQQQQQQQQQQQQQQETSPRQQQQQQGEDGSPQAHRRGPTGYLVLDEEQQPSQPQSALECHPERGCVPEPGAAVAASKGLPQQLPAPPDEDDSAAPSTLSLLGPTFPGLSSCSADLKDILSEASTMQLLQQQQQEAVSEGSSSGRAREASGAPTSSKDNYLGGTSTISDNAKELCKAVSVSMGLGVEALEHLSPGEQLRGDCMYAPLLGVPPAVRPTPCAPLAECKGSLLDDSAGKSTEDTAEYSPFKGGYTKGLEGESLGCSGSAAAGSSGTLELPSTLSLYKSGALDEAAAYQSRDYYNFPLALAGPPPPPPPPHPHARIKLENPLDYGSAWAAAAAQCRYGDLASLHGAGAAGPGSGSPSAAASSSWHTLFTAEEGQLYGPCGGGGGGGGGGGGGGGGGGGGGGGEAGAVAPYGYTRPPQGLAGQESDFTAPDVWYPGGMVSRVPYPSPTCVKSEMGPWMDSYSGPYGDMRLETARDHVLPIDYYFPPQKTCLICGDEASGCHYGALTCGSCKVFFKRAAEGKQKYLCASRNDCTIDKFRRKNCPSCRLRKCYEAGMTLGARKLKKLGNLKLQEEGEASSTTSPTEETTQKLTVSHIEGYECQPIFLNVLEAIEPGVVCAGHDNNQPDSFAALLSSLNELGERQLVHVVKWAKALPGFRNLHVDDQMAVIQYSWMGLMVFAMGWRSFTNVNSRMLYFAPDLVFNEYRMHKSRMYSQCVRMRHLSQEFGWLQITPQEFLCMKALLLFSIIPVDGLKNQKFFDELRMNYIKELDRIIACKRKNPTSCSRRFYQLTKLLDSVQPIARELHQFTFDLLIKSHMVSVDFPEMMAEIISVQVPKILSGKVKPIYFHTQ
Experiment: AR transcriptional output, ARE-luciferase assay in HEK 293T cells
Format: cell-based
Experimental: 100% is set to the activity with 200 μM testosterone, and 0% is set to the basal level (no ligand).
Cells were maintained in steroid free media, and stimulated with 200 μM testosterone, followed immediately by administration of exemplary compounds (Table 1, below). RLU is relative luciferase units, relative to DMSO control with 200 μM testosterone alone. Data represent an average of 3 independent experiments performed in triplicate wells per compounds at 10 μM.
Cells were maintained in steroid-free media, and stimulated with 200 μM testosterone, followed immediately by administration of a test compound. […] Compounds were dosed at 10 μM in FIGS. 6A and 6B.
Cells were maintained in steroid-free media, and stimulated with 200 μM testosterone, followed immediately by administration of a test compound.

**Q.** What does the source list for `CC1(C)C(=O)N(c2ccc(C#N)c(C(F)(F)F)c2)C(=S)N1Cc1ccc(-c2c[nH]nn2)cc1` [Compound 15a, 4-(3-(4-(1H-1,2,3-triazol-4-yl)benzyl)-4,4-dimethyl-5-oxo-2-thioxoimidazolidin-1-yl)-2-(trifluoromethyl)benzonitrile]?
**A.** antagonist or inverse agonist activity on AR transcriptional activity (in words) (10 μM, HEK 293T, FIG. 6A): reduced the transcriptional activity of the AR well below the expression in the absence of any steroids or ligands; activity at 10 µM (HEK-293T, read-out: AR antagonist activity (% RLU)): -109%
